Experimental data: US20230085307A1, “PYRIDAZINONE COMPOUND AND HERBICIDE” (NISSAN CHEMICAL CORPORATION, priority 2019, published 2023)

What was measured:
barnyard grass [1] = assay: Test Example 3: herbicidal effect by foliage application, Wagner pot (Table 18, symbol H); assay type: in vivo, barnyard grass (Echinochloa crus-galli); settings: amount of applied herbicide 320 g/ha
Method in brief: (§1)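 Plants were sown in alluvial soil held under 0.1–0.5 cm standing water and grown 14 days in a greenhouse at 25–30 °C. An emulsifiable formulation, water-diluted to the set dose, was then sprayed onto the foliage, and effects were scored three weeks later using previously defined criteria.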

Chinese sprangletop = assay: Test Example 3: herbicidal effect by foliage application, Wagner pot (Table 18, symbol D); assay type: in vivo, chinese sprangletop (Leptochloa chinensis); settings: amount of applied herbicide 320 g/ha
Method in brief: as §1

rice flat sedge = assay: Test Example 3: herbicidal effect by foliage application, Wagner pot (Table 18, symbol E); assay type: in vivo, rice flat sedge (Cyperus iria); settings: amount of applied herbicide 320 g/ha
Method in brief: as §1

southern crabgrass [2] = assay: Test Example 4: herbicidal effect by soil treatment (Table 19, symbol F); assay type: in vivo, southern crabgrass (Digitaria ciliaris); settings: amount of applied herbicide 320 g/ha
Method in brief: (§2)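 Herbicidal effect was rated 3 weeks after treatment, using the scoring criteria of an earlier test. The compound, formulated as an emulsion and diluted in water to a set herbicide amount, had been sprayed uniformly on soil over freshly sown seeds. Growth took place in a greenhouse at 25° C. to 30° C.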

green foxtail [3] = assay: Test Example 4: herbicidal effect by soil treatment (Table 19, symbol G); assay type: in vivo, green foxtail (Setaria viridis); settings: amount of applied herbicide 320 g/ha
Method in brief: as §2

barnyard grass [4] = assay: Test Example 4: herbicidal effect by soil treatment (Table 19, symbol H); assay type: in vivo, barnyard grass (Echinochloa crus-galli); settings: amount of applied herbicide 320 g/ha
Method in brief: as §2

wild oat [5] = assay: Test Example 4: herbicidal effect by soil treatment (Table 19, symbol I); assay type: in vivo, wild oat (Avena fatua); settings: amount of applied herbicide 320 g/ha
Method in brief: as §2

blackgrass [6] = assay: Test Example 4: herbicidal effect by soil treatment (Table 19, symbol J); assay type: in vivo, blackgrass (Alopecurus myosuroides); settings: amount of applied herbicide 320 g/ha
Method in brief: as §2

Italian ryegrass [7] = assay: Test Example 4: herbicidal effect by soil treatment (Table 19, symbol K); assay type: in vivo, Italian ryegrass (Lolium multiflorum); settings: amount of applied herbicide 320 g/ha
Method in brief: as §2

windgrass [8] = assay: Test Example 4: herbicidal effect by soil treatment (Table 19, symbol L); assay type: in vivo, windgrass (Apera spica-venti); settings: amount of applied herbicide 320 g/ha
Method in brief: as §2

velvetleaf [9] = assay: Test Example 4: herbicidal effect by soil treatment (Table 19, symbol M); assay type: in vivo, velvetleaf (Abutilon theophrasti); settings: amount of applied herbicide 320 g/ha
Method in brief: as §2

redroot pigweed [10] = assay: Test Example 4: herbicidal effect by soil treatment (Table 19, symbol N); assay type: in vivo, redroot pigweed (Amaranthus retroflexus); settings: amount of applied herbicide 320 g/ha
Method in brief: as §2

lambsquarters [11] = assay: Test Example 4: herbicidal effect by soil treatment (Table 19, symbol O); assay type: in vivo, lambsquarters (Chenopodium album); settings: amount of applied herbicide 320 g/ha
Method in brief: as §2

chickweed [12] = assay: Test Example 4: herbicidal effect by soil treatment (Table 19, symbol P); assay type: in vivo, common chickweed (Stellaria media); settings: amount of applied herbicide 320 g/ha
Method in brief: as §2

persian speedwell [13] = assay: Test Example 4: herbicidal effect by soil treatment (Table 19, symbol R); assay type: in vivo, Persian speedwell (Veronica persica); settings: amount of applied herbicide 320 g/ha
Method in brief: as §2

southern crabgrass [14] = assay: Test Example 5: herbicidal effect by foliage application, plastic box (Table 20, symbol F); assay type: in vivo, southern crabgrass (Digitaria ciliaris); settings: foliage application, AAH 320 g/ha, evaluated three weeks after application
Method in brief: (§3)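 Foliar spray test: emulsion formulation diluted in water to a set application rate, sprayed onto 14-day-old plants raised in diluvial soil at 25° C to 30° C under glass. Both herbicidal effect and crop effect rated visually three weeks later.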

green foxtail [15] = assay: Test Example 5: herbicidal effect by foliage application, plastic box (Table 20, symbol G); assay type: in vivo, green foxtail (Setaria viridis); settings: foliage application, AAH 320 g/ha, evaluated three weeks after application
Method in brief: as §3

barnyard grass [16] = assay: Test Example 5: herbicidal effect by foliage application, plastic box (Table 20, symbol H); assay type: in vivo, barnyard grass (Echinochloa crus-galli); settings: foliage application, AAH 320 g/ha, evaluated three weeks after application
Method in brief: as §3

wild oat [17] = assay: Test Example 5: herbicidal effect by foliage application, plastic box (Table 20, symbol I); assay type: in vivo, wild oat (Avena fatua); settings: foliage application, AAH 320 g/ha, evaluated three weeks after application
Method in brief: as §3

blackgrass [18] = assay: Test Example 5: herbicidal effect by foliage application, plastic box (Table 20, symbol J); assay type: in vivo, blackgrass (Alopecurus myosuroides); settings: foliage application, AAH 320 g/ha, evaluated three weeks after application
Method in brief: as §3

Italian ryegrass [19] = assay: Test Example 5: herbicidal effect by foliage application, plastic box (Table 20, symbol K); assay type: in vivo, Italian ryegrass (Lolium multiflorum); settings: foliage application, AAH 320 g/ha, evaluated three weeks after application
Method in brief: as §3

windgrass [20] = assay: Test Example 5: herbicidal effect by foliage application, plastic box (Table 20, symbol L); assay type: in vivo, windgrass (Apera spica-venti); settings: foliage application, AAH 320 g/ha, evaluated three weeks after application
Method in brief: as §3

velvetleaf [21] = assay: Test Example 5: herbicidal effect by foliage application, plastic box (Table 20, symbol M); assay type: in vivo, velvetleaf (Abutilon theophrasti); settings: foliage application, AAH 320 g/ha, evaluated three weeks after application
Method in brief: as §3

redroot pigweed [22] = assay: Test Example 5: herbicidal effect by foliage application, plastic box (Table 20, symbol N); assay type: in vivo, redroot pigweed (Amaranthus retroflexus); settings: foliage application, AAH 320 g/ha, evaluated three weeks after application
Method in brief: as §3

lambsquarters [23] = assay: Test Example 5: herbicidal effect by foliage application, plastic box (Table 20, symbol O); assay type: in vivo, lambsquarters (Chenopodium album); settings: foliage application, AAH 320 g/ha, evaluated three weeks after application
Method in brief: as §3

chickweed [24] = assay: Test Example 5: herbicidal effect by foliage application, plastic box (Table 20, symbol P); assay type: in vivo, common chickweed (Stellaria media); settings: foliage application, AAH 320 g/ha, evaluated three weeks after application
Method in brief: as §3

persian speedwell [25] = assay: Test Example 5: herbicidal effect by foliage application, plastic box (Table 20, symbol R); assay type: in vivo, Persian speedwell (Veronica persica); settings: foliage application, AAH 320 g/ha, evaluated three weeks after application
Method in brief: as §3

SMILES	herbicidal effect on H: barnyard grass (barnyard grass [1])	herbicidal effect on D: Chinese sprangletop (Chinese sprangletop)	herbicidal effect on E: rice flat sedge (rice flat sedge)	F: southern crabgrass, herbicidal effect (criteria 0-5) (southern crabgrass [14])	G: green foxtail, herbicidal effect (criteria 0-5) (green foxtail [15])	H: barnyard grass, herbicidal effect (criteria 0-5) (barnyard grass [16])	I: wild oat, herbicidal effect (criteria 0-5) (wild oat [17])	J: blackgrass, herbicidal effect (criteria 0-5) (blackgrass [18])	K: Italian ryegrass, herbicidal effect (criteria 0-5) (Italian ryegrass [19])	L: windgrass, herbicidal effect (criteria 0-5) (windgrass [20])	M: velvetleaf, herbicidal effect (criteria 0-5) (velvetleaf [21])	N: redroot pigweed, herbicidal effect (criteria 0-5) (redroot pigweed [22])	O: lambsquarters, herbicidal effect (criteria 0-5) (lambsquarters [23])	P: chickweed, herbicidal effect (criteria 0-5) (chickweed [24])	R: persian speedwell, herbicidal effect (criteria 0-5) (persian speedwell [25])	other results
Cc1nn(C)c(=O)c(-c2c(-c3ccc(Cl)cc3Cl)sc3ccc(F)cc23)c1O [2-346]	4 (Herbicidal rate of 70% or more and less than 90%)	3 (Herbicidal rate of 40% or more and less than 70%)	1 (Herbicidal rate of 5% or more and less than 20%)	0 (Herbicidal rate of 5% or less (almost no effect))	0 (Herbicidal rate of 5% or less (almost no effect))	0 (Herbicidal rate of 5% or less (almost no effect))	0 (Herbicidal rate of 5% or less (almost no effect))	0 (Herbicidal rate of 5% or less (almost no effect))	3 (Herbicidal rate of 40% or more and less than 70%)	2 (Herbicidal rate of 20% or more and less than 40%)	1 (Herbicidal rate of 5% or more and less than 20%)	3 (Herbicidal rate of 40% or more and less than 70%)	2 (Herbicidal rate of 20% or more and less than 40%)	5 (Herbicidal rate of 90% or more (almost completely withered))	4 (Herbicidal rate of 70% or more and less than 90%)	herbicidal effect on F: southern crabgrass (southern crabgrass [2]): 0 (Herbicidal rate of 5% or less (almost no effect)); herbicidal effect on G: green foxtail (green foxtail [3]): 0 (Herbicidal rate of 5% or less (almost no effect)); herbicidal effect on H: barnyard grass (barnyard grass [4]): 0 (Herbicidal rate of 5% or less (almost no effect)); herbicidal effect on I: wild oat (wild oat [5]): 0 (Herbicidal rate of 5% or less (almost no effect)); herbicidal effect on J: blackgrass (blackgrass [6]): 0 (Herbicidal rate of 5% or less (almost no effect)); herbicidal effect on K: Italian ryegrass (Italian ryegrass [7]): 0 (Herbicidal rate of 5% or less (almost no effect)); herbicidal effect on L: windgrass (windgrass [8]): 0 (Herbicidal rate of 5% or less (almost no effect)); herbicidal effect on M: velvetleaf (velvetleaf [9]): 0 (Herbicidal rate of 5% or less (almost no effect)); herbicidal effect on N: redroot pigweed (redroot pigweed [10]): 0 (Herbicidal rate of 5% or less (almost no effect)); herbicidal effect on O: lambsquarters (lambsquarters [11]): 3 (Herbicidal rate of 40% or more and less than 70%); herbicidal effect on P: chickweed (chickweed [12]): 0 (Herbicidal rate of 5% or less (almost no effect)); herbicidal effect on R: persian speedwell (persian speedwell [13]): 0 (Herbicidal rate of 5% or less (almost no effect))
CCn1nc(C)c(O)c(-c2c(-c3ccc(C(F)(F)F)cc3)sc3ccc(F)cc23)c1=O [2-402]	5 (Herbicidal rate of 90% or more (almost completely withered))	3 (Herbicidal rate of 40% or more and less than 70%)	3 (Herbicidal rate of 40% or more and less than 70%)	4 (Herbicidal rate of 70% or more and less than 90%)	3 (Herbicidal rate of 40% or more and less than 70%)	5 (Herbicidal rate of 90% or more (almost completely withered))	4 (Herbicidal rate of 70% or more and less than 90%)	5 (Herbicidal rate of 90% or more (almost completely withered))	5 (Herbicidal rate of 90% or more (almost completely withered))	5 (Herbicidal rate of 90% or more (almost completely withered))	4 (Herbicidal rate of 70% or more and less than 90%)	4 (Herbicidal rate of 70% or more and less than 90%)	4 (Herbicidal rate of 70% or more and less than 90%)	5 (Herbicidal rate of 90% or more (almost completely withered))	5 (Herbicidal rate of 90% or more (almost completely withered))	herbicidal effect, F: southern crabgrass (southern crabgrass [2]): 2 (Herbicidal rate of 20% or more and less than 40%); herbicidal effect, G: green foxtail (green foxtail [3]): 0 (Herbicidal rate of 5% or less (almost no effect)); herbicidal effect, H: barnyard grass (barnyard grass [4]): 0 (Herbicidal rate of 5% or less (almost no effect)); herbicidal effect, I: wild oat (wild oat [5]): 0 (Herbicidal rate of 5% or less (almost no effect)); herbicidal effect, J: blackgrass (blackgrass [6]): 0 (Herbicidal rate of 5% or less (almost no effect)); herbicidal effect, K: Italian ryegrass (Italian ryegrass [7]): 2 (Herbicidal rate of 20% or more and less than 40%); herbicidal effect, L: windgrass (windgrass [8]): 2 (Herbicidal rate of 20% or more and less than 40%); herbicidal effect, M: velvetleaf (velvetleaf [9]): 0 (Herbicidal rate of 5% or less (almost no effect)); herbicidal effect, N: redroot pigweed (redroot pigweed [10]): 1 (Herbicidal rate of 5% or more and less than 20%); herbicidal effect, O: lambsquarters (lambsquarters [11]): 1 (Herbicidal rate of 5% or more and less than 20%); herbicidal effect, P: chickweed (chickweed [12]): 4 (Herbicidal rate of 70% or more and less than 90%); herbicidal effect, R: persian speedwell (persian speedwell [13]): 5 (Herbicidal rate of 90% or more (almost completely withered))
